What all share (type): in vivo, BALB/c nude mice
The test system of assay [1] is IL-6. As to the kind of experiment: ELISA of serum IL-6 in M5 tumor-bearing mice. As to conditions: relative to the control group. The procedure:
The serum levels of IL-6 in the blood samples were measured using commercial mouse kits (ab213749 and ab100697; Abcam, Cambridge, MA, USA) according to the manufacturer's protocol. 50 μl of samples were added to each of the wells in 96-well antibody-coated plates and then incubated for 2 hours at room temperature. 50 μl of the detector antibody solution was loaded into each well and incubated the plates for a further 1 hour at room temperature. Next, […] of HRP-Streptavidin solution (ab210901, Abcam) was added to each well, and once again incubated the plates for 1 hour at room temperature. Finally, 100 μl of tetramethylbenzidine substrate was added to each well and incubated the plates for another 10 min in the dark, again at room temperature. The reaction was stopped by adding 100 μl of stop solution. The wavelength of absorbance was at 450 nm and results were expressed in pg/ml.
For orientation: An ELISA detects its analyte on a solid surface through an enzyme-linked reagent.

Assay [2] has as its system TGF-β. As to the kind of experiment: IHC analysis of TGF-β in M5 tumors. As to conditions: relative to the control group. The procedure: (§1) The mice were observed daily for clinical signs, weighed them every three days, and at one month after tumor-cell implantation euthanized them with an overdose of anesthetic combined with carbon dioxide. Immediately before sacrificing the mice, the blood was collected from them under anesthesia for hematological assessment. After euthanizing the mice, the tumors were excised immediately. The tumor specimens were divided into two groups. One group was treated with 10% formalin and embedded the specimens in paraffin. These specimens were investigated by hematoxylin and eosin staining; terminal deoxyribonucleotidyl transferase (TdT)-mediated biotin-16-dUTP nick-end labeling (TUNEL assay; APO-BrdU TUNEL Assay Kit, BD Pharmingen, San Diego, CA, USA); and IHC for IL-1β, TNF-α, TGF-β, and CD44, using primary antibodies against these factors (Merck, Billerica, MA, USA). Protein expression was assessed via IHC with the […] mouse/rabbit polymer detection system produced by BioTnA (Kaohsiung, Taiwan). A high-resolution digital microscope (Moticam 2300, Motic Instruments, Richmond, Canada) equipped with Motic Images Plus (version 2.0) was used to capture and analyze the images. The other groups of tumor specimens were first minced coarsely and homogenized, and then stored in a freezer at -80° C.

The subject of assay [3] is cleaved caspase 3. As to the kind of experiment: Western blot of cleaved caspase 3 in M5 tumors. As to conditions: vs control group. The procedure:
as §1, with “[…] Protein expression and phosphorylation were quantified with ImageJ (National Institutes” for “The other groups”, “Health, Bethesda, […], USA).” for “tumor specimens were first minced coarsely and homogenized, and then stored in a freezer at -80° C.”
A general note: Immunoblotting shows a protein as a band on a membrane.

The source of these data is patent publication US12409158B2, “Combination therapy for treating cancer” (GONGWIN BIOPHARM CO., LTD, priority 2022, dated 2025).

On to `N.N.[Cl][Pt][Cl]` [Cisplatin, cisplatin, reference compound], for which the “serum IL-6 expression reduction” value in assay [1] came out at 62.8%. Further, the TGF-β expression reduction result in assay [2] is “about 26.6%”. For the same molecule, the “cleaved caspase 3 expression” value in assay [3] is reported as “significantly higher”.
For `Cc1ccc(S(N)(=O)=O)cc1` [PTS, p-Toluenesulfonamide], the “serum IL-6 expression reduction” value in assay [1] amounted to 57.5%. The molecule further came in with a TGF-β expression reduction in assay [2] of approximately 23.3%. Moreover, the “cleaved caspase 3 expression” value in assay [3] is reported as “significantly higher”.
